According to patent publication US12582625B2, “Methods for treating neuroblastoma” (priority 2015, dated 2026):
Several values for one entry are separate records, joined by “and”; a condition that tells them apart may be missing. Identical values can stand only once.

Assays:
[1] = test system: high-risk neuroblastoma in complete remission; assay: NMTRC003 phase II prevention trial: event free and overall survival; format: in vivo, human
Excerpt: Study Design. This was an open label, single agent, multicenter clinical trial for patients with high-risk neuroblastoma in complete remission at the completion of standard therapy. […] Prior to study entry, written informed consent was obtained from the subjects' parent(s) or guardian(s) and, when appropriate, written assent was obtained from subjects. ClinicalTrials.gov Identifiers: NCT01586260/NCT02395666.
Subjects were required to have histologically confirmed International Neuroblastoma Staging System (INSS) high-risk neuroblastoma at the time of diagnosis. Subjects must have completed standard high-risk neuroblastoma (HRNB) therapy with 5-7 cycles of induction chemotherapy, surgical resection of primary tumor (if feasible), consolidative therapy with high-dose chemotherapy/autologous stem cell support and radiation therapy as indicated, and anti-GD2 antibody therapy with isotretinoin for up to 6 cycles. […] To be considered in complete remission, subjects had to have no radiographic evidence for persistent neuroblastoma by CT or MRI (and by metaiodobenzylguanidine (MIBG) in subjects whose tumors were originally MIBG avid), histologically negative bone marrow aspirate/biopsy, and normal urinary catecholamines as assessed by ratios of vanillylmandelic acid and homovanillic acid to creatinine. Subjects with residual masses or bone changes visible on CT or MRI could still be considered in CR if the lesions were negative by both MIBG and PET scans.
(§1) Dosing diaries were required to be completed for each cycle. […] The primary endpoint was Event Free Survival (EFS); secondary objectives included Overall Survival (OS) and safety. EFS was defined as the period from the first day of administration of study drug to the first occurrence of relapse or death, and OS was defined as the first day of administration of study drug until death; subjects without an event were censored at the time of last contact. Safety analysis was conducted on all subjects who received at least one dose of study drug, and included the frequency, grading, expectedness and attribution of all adverse events as well as dose interruptions, dose reductions, and treatment discontinuation.
Statistical Analysis: Estimation and hypothesis testing based on survival data. Event-free and overall survival were estimated using the method of Kaplan and Meier (Meier, 1958) while standard errors were estimated using Greenwood's formula. […] However, NMTRC003 patients enrolled on ANBL0032 represent a subset of the ANBL0032 population, patients event-free at the start of NMTRC003 therapy (6-10 months after the start of ANBL0032 therapy) (Yu et al., 2010). Therefore, it was necessary to adjust the published ANBL0032 EFS using the definition of conditional probability for a direct comparison. […]

[2] = NMTRC003 phase II prevention trial: adverse events; format: in vivo
Experimental: as §1

tumor putrescine levels = conditions: eflornithine infusion, without suppressing peripheral platelet counts; cited from earlier work
[3] = adults; cited from earlier work
[4] = human, in vivo, 27 4-week cycles

In the case of `NCCCC(N)(C(=O)O)C(F)F` (centres unmarked) [DFMO, 2,5-diamino-2-(difluoromethyl) pentanoic acid], the “subjects who have relapsed to date” value ([1]; ITT population (91)) is reported as 6, the “relapses after completion of DFMO therapy (all 27 cycles)” value ([1]; follow up of up to 3.5 years) is reported as “no late relapses and None” and the “outcome of subjects with Curie score greater than 0 prior to immunotherapy” value ([1]; n=4 of 52 with known Curie score, ANBL0032 followed by DFMO) is reported as “remain in remission”. The “2-year event free survival (EFS)” value ([1]; subjects previously enrolled on ANBL0032 (n=74)) was 95% (±3%) and 95% (+/−3%), the “patients with grade 2-3 transaminitis (most common toxicity)” value ([2]; DFMO 500-1000 mg/m^2 BID) was under 10% and the tolerability ([2]; DFMO 500-1000 mg/m^2 BID) was “well tolerated”. The “ALT elevation Grade 2, patients (%)” value ([2]; Stratum 1, n = 94) was 3 (3%), the “ALT elevation Grade 3, patients (%)” value ([2]; Stratum 1, n = 94) was 5 (5%) and the “ALT elevation Grade 4, patients (%)” value ([2]; Stratum 1, n = 94) was 0. The “ALT elevation Grade 5, patients (%)” value ([2]; Stratum 1, n = 94) was 0, the “AST elevation Grade 2, patients (%)” value ([2]; Stratum 1, n = 94) was 3 (3%) and the “AST elevation Grade 3, patients (%)” value ([2]; Stratum 1, n = 94) was 4 (4%). The “AST elevation Grade 4, patients (%)” value ([2]; Stratum 1, n = 94) was 0, the “AST elevation Grade 5, patients (%)” value ([2]; Stratum 1, n = 94) was 0 and the “Agitation Grade 2, patients (%)” value ([2]; Stratum 1, n = 94) was 1 (1%). For the same molecule, the “Agitation Grade 3, patients (%)” value ([2]; Stratum 1, n = 94) was 0, the “Agitation Grade 4, patients (%)” value ([2]; Stratum 1, n = 94) was 0 and the “Agitation Grade 5, patients (%)” value ([2]; Stratum 1, n = 94) was 0. The “Alopecia Grade 2, patients (%)” value ([2]; Stratum 1, n = 94) was 1 (1%), the “Alopecia Grade 3, patients (%)” value ([2]; Stratum 1, n = 94) was 0 and the “Alopecia Grade 4, patients (%)” value ([2]; Stratum 1, n = 94) was 0. The “Alopecia Grade 5, patients (%)” value ([2]; Stratum 1, n = 94) was 0, the “Anemia Grade 2, patients (%)” value ([2]; Stratum 1, n = 94) was 4 (4%) and the “Anemia Grade 3, patients (%)” value ([2]; Stratum 1, n = 94) was 0. The “Anemia Grade 4, patients (%)” value ([2]; Stratum 1, n = 94) was 0, the “Anemia Grade 5, patients (%)” value ([2]; Stratum 1, n = 94) was 0 and the “Anorexia Grade 2, patients (%)” value ([2]; Stratum 1, n = 94) was 1 (1%). For the same molecule, the “Anorexia Grade 3, patients (%)” value ([2]; Stratum 1, n = 94) was 0, the “Anorexia Grade 4, patients (%)” value ([2]; Stratum 1, n = 94) was 0 and the “Anorexia Grade 5, patients (%)” value ([2]; Stratum 1, n = 94) was 0. For the same molecule, the “Diarrhea Grade 2, patients (%)” value ([2]; Stratum 1, n = 94) was 5 (5%), the “Diarrhea Grade 3, patients (%)” value ([2]; Stratum 1, n = 94) was 0 and the “Diarrhea Grade 4, patients (%)” value ([2]; Stratum 1, n = 94) was 0. For the same molecule, the “Diarrhea Grade 5, patients (%)” value ([2]; Stratum 1, n = 94) was 0, the “Fever Grade 2, patients (%)” value ([2]; Stratum 1, n = 94) was 2 (2%) and the “Fever Grade 3, patients (%)” value ([2]; Stratum 1, n = 94) was 0. For the same molecule, the “Fever Grade 4, patients (%)” value ([2]; Stratum 1, n = 94) was 0, the “Fever Grade 5, patients (%)” value ([2]; Stratum 1, n = 94) was 0 and the “Hearing Loss Grade 2, patients (%)” value ([2]; Stratum 1, n = 94) was 2 (2%). The “Hearing Loss Grade 3, patients (%)” value ([2]; Stratum 1, n = 94) was 4 (4%), the “Hearing Loss Grade 4, patients (%)” value ([2]; Stratum 1, n = 94) was 0 and the “Hearing Loss Grade 5, patients (%)” value ([2]; Stratum 1, n = 94) was 0. For the same molecule, the “Hypoglycemia Grade 2, patients (%)” value ([2]; Stratum 1, n = 94) was 0, the “Hypoglycemia Grade 3, patients (%)” value ([2]; Stratum 1, n = 94) was 0 and the “Hypoglycemia Grade 4, patients (%)” value ([2]; Stratum 1, n = 94) was 1 (1%). For the same molecule, the “Hypoglycemia Grade 5, patients (%)” value ([2]; Stratum 1, n = 94) was 0, the “Hypokalemia Grade 2, patients (%)” value ([2]; Stratum 1, n = 94) was 0 and the “Hypokalemia Grade 3, patients (%)” value ([2]; Stratum 1, n = 94) was 2 (2%). For the same molecule, the “Hypokalemia Grade 4, patients (%)” value ([2]; Stratum 1, n = 94) was 0, the “Hypokalemia Grade 5, patients (%)” value ([2]; Stratum 1, n = 94) was 0 and the “INR Elevated Grade 2, patients (%)” value ([2]; Stratum 1, n = 94) was 1 (1%). The “INR Elevated Grade 3, patients (%)” value ([2]; Stratum 1, n = 94) was 0, the “INR Elevated Grade 4, patients (%)” value ([2]; Stratum 1, n = 94) was 0 and the “INR Elevated Grade 5, patients (%)” value ([2]; Stratum 1, n = 94) was 0. For the same molecule, the “Infection, Other Grade 5, patients (%)” value ([2]; Stratum 1, n = 94) was 0, the “Infection, middle ear Grade 5, patients (%)” value ([2]; Stratum 1, n = 94) was 0 and the “Neutrophil count decrease Grade 2, patients (%)” value ([2]; Stratum 1, n = 94) was 4 (4%). For the same molecule, the “Neutrophil count decrease Grade 3, patients (%)” value ([2]; Stratum 1, n = 94) was 3 (3%), the “Neutrophil count decrease Grade 4, patients (%)” value ([2]; Stratum 1, n = 94) was 0 and the “Neutrophil count decrease Grade 5, patients (%)” value ([2]; Stratum 1, n = 94) was 0. The “Pain Grade 2, patients (%)” value ([2]; Stratum 1, n = 94) was 2 (2%), the “Pain Grade 3, patients (%)” value ([2]; Stratum 1, n = 94) was 0 and the “Pain Grade 4, patients (%)” value ([2]; Stratum 1, n = 94) was 0. The “Pain Grade 5, patients (%)” value ([2]; Stratum 1, n = 94) was 0, the “Platelet count decrease Grade 2, patients (%)” value ([2]; Stratum 1, n = 94) was 2 (2%) and the “Platelet count decrease Grade 3, patients (%)” value ([2]; Stratum 1, n = 94) was 0. For the same molecule, the “Platelet count decrease Grade 4, patients (%)” value ([2]; Stratum 1, n = 94) was 0, the “Platelet count decrease Grade 5, patients (%)” value ([2]; Stratum 1, n = 94) was 0 and the “Post Nasal Drip Grade 2, patients (%)” value ([2]; Stratum 1, n = 94) was 1 (1%). For the same molecule, the “Post Nasal Drip Grade 3, patients (%)” value ([2]; Stratum 1, n = 94) was 0, the “Post Nasal Drip Grade 4, patients (%)” value ([2]; Stratum 1, n = 94) was 0 and the “Post Nasal Drip Grade 5, patients (%)” value ([2]; Stratum 1, n = 94) was 0. For the same molecule, the “Rash Grade 2, patients (%)” value ([2]; Stratum 1, n = 94) was 1 (1%), the “Rash Grade 3, patients (%)” value ([2]; Stratum 1, n = 94) was 0 and the “Rash Grade 4, patients (%)” value ([2]; Stratum 1, n = 94) was 0. For the same molecule, the “Rash Grade 5, patients (%)” value ([2]; Stratum 1, n = 94) was 0, the “Weight Gain Grade 2, patients (%)” value ([2]; Stratum 1, n = 94) was 1 (1%) and the “Weight Gain Grade 3, patients (%)” value ([2]; Stratum 1, n = 94) was 0. For the same molecule, the “Weight Gain Grade 4, patients (%)” value ([2]; Stratum 1, n = 94) was 0, the “Weight Gain Grade 5, patients (%)” value ([2]; Stratum 1, n = 94) was 0 and the “White blood cell decreased Grade 2, patients (%)” value ([2]; Stratum 1, n = 94) was 2 (2%). For the same molecule, the “White blood cell decreased Grade 3, patients (%)” value ([2]; Stratum 1, n = 94) was 0, the “White blood cell decreased Grade 4, patients (%)” value ([2]; Stratum 1, n = 94) was 0 and the “White blood cell decreased Grade 5, patients (%)” value ([2]; Stratum 1, n = 94) was 0. For the same molecule, the “patients with an increase in hearing loss” value ([2]; among patients with pre-existing hearing loss, all returned to baseline after holding medication) was 4 patients, the “Infection, Other Grade 2, patients (%)” value [2, 4] was 2 (2%) and the “Infection, Other Grade 3, patients (%)” value [2, 4] was 0. For the same molecule, the “Infection, Other Grade 4, patients (%)” value [2, 4] was 0, the “Infection, middle ear Grade 2, patients (%)” value [2, 4] was 2 (2%) and the “Infection, middle ear Grade 3, patients (%)” value [2, 4] was 0. The “Infection, middle ear Grade 4, patients (%)” value [2, 4] was 0, the “population that did not report any related adverse events” value ([2]; over 2 years) was 67% and the “serious adverse events (SAE)” value ([2]; whole study) was “only one SAE involving hypoglycemia”. The “decrease in tumor putrescine levels” value (tumor putrescine levels) was 90% and the “elimination half-life of DFMO” value [3] was 2 to 4 h.
